Data set [1] can be described thus: Boiling point determination (Example 2). Format: physicochemical. The following applies: for Bp: Table 3, approximate physical properties; for BP: Table 5. The method, then: (§1) The boiling point (“BP”) of HFO-1336pyy and HFO-1336eyc were determined and the results are reported below in Table 5. The dielectric constant (“Dk”) of HFO-1336pyy and HFO-1336eyc(E) were measured, whereas the Dk of HFO*1336eyc (Z) was calculated using the Kirkwood model as described in Harvey, A. H. and Lemmon, E. W., International Journal of Thermophysics, Vol. 26, No. 1, 2005. The measured dielectric property were determined using the Agilent 85070 Dielectric Probe. All measurements were made at ambient pressure and room temperature (approximately 23° C.). Prior to making measurements, the system was calibrated from 1 GHz to 20 GHz with an open circuit, a short circuit, and DI water (@22.4° C.) standard. The accuracy of the probe is given as: Dielectric constant, er′=er′+/−0.05|er*| with er″=er″+/−0.05|er*| and (loss=er″/er′).

Data set [2] is described as follows: Dielectric constant measured with Agilent 85070 Dielectric Probe (Example 2). The format is physicochemical. The following applies: ambient pressure, room temperature (approximately 23° C.); for Dielectric Constant (Dk): Table 3; for Dk: Table 5, probe calibrated 1 GHz to 20 GHz. On the procedure:
“Dielectric Constant” means the dielectric constant as measured in accordance with ASTM D150-11 statically and at room temperature.
as §1

The text on data set [3]: This is experimentally determined where a liquid spill is simulated by pouring the liquid of interest into a watch glass. The flammability of, primarily, a single component or a blend is characterized throughout the evaporation of the puddle to dryness. […] The watch glass test is a conservative test because no external heat is applied to the watch glass, which is chilled by the evaporating solvent. The cold watch glass acts as a condenser for the vapors of higher boiling point blend components. In the case where a flammable component is high boiling, its concentration increases throughout the evaporation time, rendering the mixture more flammable than it would be under temperature-controlled blend segregation experiments.
This was experimentally determined where a liquid spill was simulated by pouring HFO-1336pyy(Z) into a watch glass. The flammability was characterized throughout the evaporation of the puddle to dryness.

In data set [1], `F/C(=C(\F)C(F)F)C(F)F` [Compound 1, (Z)-1,1,2,3,4,4-hexafluorobut-2-ene] displayed a Bp of 58.2 °C and a BP of 58.2 °C. In data set [2], the “Dielectric Constant (Dk)” value is recorded as 6.72 and the Dk was found to be 6.72.
As for `F/C(=C(/F)C(F)F)C(F)F` [Compound 2, (E)-1,1,2,3,4,4-hexafluorobut-2-ene], in data set [1], the Bp was found to be 51.7 °C and the BP worked out at 51.7 °C. Also, in data set [2], the “Dielectric Constant (Dk)” value amounted to 4.34 and the Dk stood at 4.34. The “flammability (flame on open flame passed across liquid surface)” value (from here on “flammability”) in data set [3] is given as “no flame was observed”.
In data set [1], `F/C=C(\F)C(F)(F)C(F)F` [Compound 3, (Z)-1,2,3,3,4,4-hexafluorobut-1-ene] gave a Bp of 40.4 °C and a BP of 40.4 °C. Further, in data set [3], the “flammability” value is listed as “no flame is observed”.
In data set [1], `F/C=C(/F)C(F)(F)C(F)F` [Compound 4, (E)-1,2,3,3,4,4-hexafluorobut-1-ene] gave a Bp of 45.3 °C and a BP of 45.3 °C. In data set [2], the “Dielectric Constant (Dk)” value is on record as 5.09 and the Dk is 5.09. For the same molecule, the “flammability” value in data set [3] is given as “no flame was observed”.

The values are drawn from patent US20250320397A1, “NON-PFAS REFRIGERANTS AND METHODS OF COOLING ELECTRONICS” (Honeywell International Inc., priority 2024, published 2025).
